Experimental findings from ChEMBL document CHEMBL1201862, “PubChem BioAssay data set” (2004) are described below.

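Five compound concentrations were applied to cells in 96-well plates for 48 hours; endpoints were derived by simple linear interpolation of the resulting dose-response curve. GI50: concentration for 50% inhibition of growth.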 Activity calls are given as the source filed them. Rule as the data show it: active = GI50 up to about 1.1 µM and inactive = higher. Where only a bound is given, the exact number is not on record here.

Among the test systems are NCI-H23; COLO 205; HOP-92; NCI-H522; SNB-75; NCI-H226; SK-OV-3; EKVX; HT-29; KM12; SK-MEL-5; MDA-N; TK-10; A498; HL-60; SR; Malme-3M.
Test in all cases: DTP human tumour cell line panel, 48 h

`COc1ccc2c(c1)c1c(n2CCN(C)C)-c2cccc(OC)c2CC1`: the GI50 (as a rule, the concentration giving 50% growth inhibition) in the assay with NCI-H23 is 18.8 µM (inactive); in the assay on COLO 205, 6.62 µM (inactive); in the assay with HOP-92 it was 17.7 µM (inactive); in the assay with NCI-H522 it was 3.88 µM (inactive); with SNB-75 it was 5.43 µM (inactive); in the assay with NCI-H226, 4.49 µM (inactive). Further, the GI50 in the assay on SK-OV-3 was 18.2 µM (inactive); in the assay with EKVX, 14.4 µM (inactive); in the assay with HT-29 it was 3.3 µM (inactive); in the assay on KM12 it was 11.2 µM (inactive); in the assay with SK-MEL-5, 10.4 µM (inactive); in the assay with MDA-N, 11 µM (inactive). The GI50 with TK-10 is 19.2 µM (inactive); in the assay on A498 it was 19.1 µM (inactive).
In the case of `CCOC(=O)C1=C(Nc2cccc(OC)c2)OCC1=O`, the GI50 with NCI-H23, in the assay on COLO 205, in the assay on HL-60, in the assay with HOP-92, in the assay with SNB-75 and in the assay with NCI-H226 was > 100 µM (inactive) in each case. In addition, the GI50 in the assay with SK-OV-3, with EKVX, in the assay with HT-29, with KM12, with SK-MEL-5 and in the assay with TK-10 was > 100 µM (inactive) in each case. The GI50 was > 100 µM (inactive) in the assay on SR and 27.7 µM (inactive) in the assay with A498.
Turning to `COc1cc2c3c4[n+](cc2c(OC)c1OC)CCC4CCC3` (stereo unspecified), the GI50 in the assay with NCI-H23 is 98.9 µM (inactive); with COLO 205, 34.7 µM (inactive); with HOP-92, > 100 µM (inactive); in the assay with Malme-3M, 20.4 µM (inactive); in the assay on NCI-H522 it was 51.3 µM (inactive); in the assay with NCI-H226, > 100 µM (inactive). The GI50 in the assay on SK-OV-3 is > 100 µM (inactive); with EKVX, > 100 µM (inactive); in the assay on HT-29, > 100 µM (inactive); with KM12 it was 47.4 µM (inactive); in the assay with SK-MEL-5 it was 21.6 µM (inactive); in the assay on MDA-N, > 100 µM (inactive). Besides, the GI50 in the assay with TK-10 and in the assay on A498 was > 100 µM (inactive) throughout.
As for `CC(=O)NNC1=NN(C(C)=O)C2(S1)C(=O)Nc1ccccc12` (stereo unspecified), the GI50 in the assay on NCI-H23 is > 100 µM (inactive); with HL-60, 97.5 µM (inactive); with Malme-3M it was > 100 µM (inactive); in the assay with NCI-H522 it was > 100 µM (inactive); in the assay with SNB-75 it was 65.8 µM (inactive); in the assay on NCI-H226, > 100 µM (inactive). For the same molecule, the GI50 with SK-OV-3, with EKVX, in the assay on HT-29, in the assay on KM12, in the assay on SK-MEL-5 and in the assay with MDA-N was > 100 µM (inactive) in each case. Besides, the GI50 in the assay on TK-10 and with SR was > 100 µM (inactive) in each case.
Consider `N#Cc1cc(Sc2ccc(N)c(C#N)c2)ccc1N`, for which the GI50 is 8.59 µM (inactive) in the assay on COLO 205; 1.87 µM (inactive) in the assay on HL-60; 21.7 µM (inactive) with HOP-92; 2.8 µM (inactive) in the assay with Malme-3M; 19.6 µM (inactive) in the assay on NCI-H226; 23.1 µM (inactive) in the assay with SK-OV-3. The GI50 was 16 µM (inactive) with EKVX; 13.6 µM (inactive) with HT-29; 8.63 µM (inactive) in the assay on KM12; 15.3 µM (inactive) with SK-MEL-5; 4.03 µM (inactive) in the assay on MDA-N; 65.6 µM (inactive) with TK-10. For the same molecule, the GI50 in the assay with A498 is 43.8 µM (inactive).
As for `CCCCCCOc1ccc(NC2=C(Cl)C(=O)c3cccnc3C2=O)cc1`, the GI50 is 1.74 µM (inactive) in the assay on NCI-H23; 1.15 µM (inactive) in the assay on HL-60; 2.02 µM (inactive) in the assay with HOP-92; 2.3 µM (inactive) with Malme-3M; 1 µM (active) in the assay with SNB-75; 1.74 µM (inactive) in the assay on NCI-H226. For the same molecule, the GI50 in the assay on SK-OV-3 was 4.35 µM (inactive); with EKVX it was 1.67 µM (inactive); with HT-29 it was 2.62 µM (inactive); in the assay on KM12, 1.61 µM (inactive); in the assay with SK-MEL-5, 1.11 µM (active); with MDA-N, 1.59 µM (inactive). The GI50 in the assay with TK-10 is 3.3 µM (inactive); in the assay on A498 it was > 10 µM (inactive).
For the molecule `Cc1c2c(c(C)n1-c1ccccc1)C(=O)N(CCN1CCN(c3cccc(C(F)(F)F)c3)CC1)C2=O`, the GI50 in the assay on NCI-H23 is 7.94 µM (inactive); in the assay on COLO 205, 17.1 µM (inactive); with HOP-92, > 100 µM (inactive); with Malme-3M, > 100 µM (inactive); in the assay on NCI-H522, 14.1 µM (inactive); in the assay with SNB-75, > 100 µM (inactive). In addition, the GI50 is > 100 µM (inactive) in the assay on NCI-H226; > 100 µM (inactive) in the assay with SK-OV-3; 8.02 µM (inactive) in the assay on EKVX; 10.6 µM (inactive) with HT-29; 30.5 µM (inactive) in the assay on KM12; 5.25 µM (inactive) in the assay on SK-MEL-5. Besides, the GI50 was 71.1 µM (inactive) with MDA-N, > 100 µM (inactive) in the assay on TK-10 and > 100 µM (inactive) with A498.
Regarding `COC(=O)C1=CCC[C@H]2[C@@]1(COC(C)=O)CC[C@@H](C)[C@]2(C)CC(=O)c1ccoc1`, the GI50 in the assay with NCI-H23 is 13.8 µM (inactive); in the assay with COLO 205, 12.2 µM (inactive); in the assay with HL-60, 10.8 µM (inactive); in the assay with HOP-92, 10.9 µM (inactive); in the assay on NCI-H522 it was 7.87 µM (inactive); with SNB-75, 12.7 µM (inactive). Further, the GI50 was 15.8 µM (inactive) in the assay on NCI-H226; 47.5 µM (inactive) in the assay on SK-OV-3; 24.3 µM (inactive) in the assay with EKVX; 8.65 µM (inactive) in the assay on HT-29; 14.4 µM (inactive) with KM12; 8.89 µM (inactive) with SK-MEL-5. The GI50 in the assay with MDA-N was 16.5 µM (inactive); in the assay with TK-10, 18.2 µM (inactive); in the assay on A498, 16.7 µM (inactive).
`CC(=O)c1ccc(N2CCN(C3=CC(=O)c4c(O)ccc(O)c4C3=O)CC2)cc1`: the GI50 was 34 µM (inactive) with NCI-H23; 35.5 µM (inactive) in the assay with COLO 205; 10.4 µM (inactive) with HL-60; 25.8 µM (inactive) in the assay on HOP-92; 4.36 µM (inactive) with Malme-3M; 24.2 µM (inactive) with SNB-75. Also, the GI50 in the assay on EKVX is > 100 µM (inactive); with HT-29 it was 30.2 µM (inactive); in the assay on KM12, 51.8 µM (inactive); in the assay on SK-MEL-5, > 10 µM (inactive); with TK-10, 61 µM (inactive); in the assay with SR, 22.5 µM (inactive). For the same molecule, in the assay with A498, the GI50 is > 100 µM (inactive).
As for `Cc1ccc(S(=O)(=O)NC(=O)C2=C3SCCN3C(=O)N(S(=O)(=O)c3ccc(C)cc3)C2c2ccccc2)cc1` (stereo unspecified), the GI50 is 40.6 µM (inactive) in the assay on NCI-H23; 19.9 µM (inactive) in the assay on COLO 205; 43.2 µM (inactive) in the assay on HL-60; 28.1 µM (inactive) in the assay with HOP-92; 40.6 µM (inactive) with Malme-3M; 20.4 µM (inactive) with NCI-H522. The GI50 in the assay on SNB-75 was 43.4 µM (inactive); with NCI-H226, > 100 µM (inactive); with SK-OV-3 it was 24.1 µM (inactive); in the assay with EKVX, > 100 µM (inactive); with HT-29, 34.4 µM (inactive); in the assay on KM12, 28.2 µM (inactive). In addition, the GI50 was > 100 µM (inactive) in the assay on TK-10, 31.4 µM (inactive) with SR and > 100 µM (inactive) in the assay on A498.
For the molecule `O=C(CSCC(=O)N/N=C/c1cccc(OCc2ccccc2)c1)N/N=C/c1cccc(OCc2ccccc2)c1`, the GI50 in the assay on NCI-H23 is 36.6 µM (inactive); in the assay on HL-60, 21.5 µM (inactive); with HOP-92, 36.7 µM (inactive); with Malme-3M, 45.5 µM (inactive); in the assay on NCI-H522, > 47.6 µM (inactive); in the assay on SNB-75, > 100 µM (inactive). The GI50 with NCI-H226 was > 74.5 µM (inactive); in the assay on SK-OV-3 it was > 100 µM (inactive); in the assay on EKVX it was 69.3 µM (inactive); in the assay with HT-29, 39.5 µM (inactive); in the assay on KM12, 33.3 µM (inactive); in the assay with SK-MEL-5, 31.3 µM (inactive). Further, the GI50 was 33.3 µM (inactive) in the assay on TK-10 and > 44.3 µM (inactive) in the assay on A498.
Take `CNc1ncnc2c1nc(NC1CCCC1)n2C1OC(CO)C(O)C1O` (stereo unspecified): the GI50 with NCI-H23, in the assay with COLO 205, in the assay on HOP-92, in the assay with Malme-3M, in the assay on NCI-H522 and with SK-OV-3 was > 100 µM (inactive) each time. Further, the GI50 in the assay on HT-29, in the assay on KM12, with SK-MEL-5, in the assay on MDA-N, with TK-10 and with A498 was > 100 µM (inactive) in each case.
For the molecule `Nc1ccc2c(SCCSc3c4ccccc4nc4cc(N)ccc34)c3ccccc3nc2c1`, the GI50 in the assay on NCI-H23 is 94.2 µM (inactive); in the assay with COLO 205, > 100 µM (inactive); with HOP-92, > 100 µM (inactive); in the assay with Malme-3M it was > 100 µM (inactive); in the assay on NCI-H522, > 100 µM (inactive); in the assay with SNB-75 it was > 100 µM (inactive). The GI50 with NCI-H226, in the assay with SK-OV-3, with EKVX, with HT-29, in the assay on KM12 and with SK-MEL-5 was > 100 µM (inactive) throughout. Also, the figures for the GI50 in the assay with TK-10 and with SR were > 100 µM (inactive) and 23 µM (inactive), respectively.
In the case of `NNc1nnc(CCCCCCCCc2nnc(NN)n2N)n1N`, the GI50 in the assay with NCI-H23 is 97.7 µM (inactive); with COLO 205, > 100 µM (inactive); with HL-60 it was 24.4 µM (inactive); with HOP-92 it was 28 µM (inactive); in the assay with NCI-H522, 38.7 µM (inactive); in the assay with SNB-75, 60.3 µM (inactive). In addition, the GI50 in the assay with NCI-H226, in the assay on SK-OV-3, in the assay on EKVX, in the assay on HT-29, in the assay on KM12 and with SK-MEL-5 was > 100 µM (inactive) each time. Besides, the GI50 in the assay on MDA-N, in the assay on TK-10 and with A498 was > 100 µM (inactive) each time.
